# Measured values reported in patent US7893082B2, “Substituted tetrahydroquinolines” (Merck Patent GmbH, priority 2005, dated 2011).
# Tested on: cells
# Assay: cell cycle effect (appended experiments)
# Format: cell-based
# Conditions: G2/M cell cycle
smiles,measurement,value
N=C(N)c1ccc(OCCCCCOc2ccc(C(=N)N)cc2)cc1 [pentamidine],effect on cell cycle,maintain cells in the G2/M cell cycle
